According to the NIST ThermoML archive (doi:10.1016/j.jct.2008.10.010):
Numbers after ± are expanded uncertainties.

What was measured:
[1] = 298.15 K; 101.33 kPa; Liquid; Pycnometric method
[2] = refractive index (Na D-line) (dimensionless); details: 298.15 K; 101.33 kPa; Liquid; Standard Abbe refractometry

`CCCCCCC` [heptane] showed a mass density [1] of 679.53 ± 0.65 kg/m3 and a refractive index [2] of 1.3852 ± 0.0008.
